Test results from publication PMC4237513 (European Journal of Medicinal Chemistry, 2014).
Read-outs that look alike come from different tables or passages of the source.

Columns and labels:
dengue virus (DENV) = experiment: microbe, parasite or virus in culture; type: cell-based; conditions: for EC50: read-out: Dengue EC50
in vitro = conditions: chlorocebus sabaeus
yellow fever virus (YFV) = experiment: microbe, parasite or virus in culture; type: cell-based; conditions: for EC50: read-out: Yellow fever EC50
[1] = Yellow fever virus, Vero B, 168 h

| Compound | EC50 (dengue virus (DENV); Dengue virus, Vero B, 168 h) | CC50 (in vitro; Dengue CC50) | CC50 (in vitro; Yellow fever CC50) | EC50 (yellow fever virus (YFV); [1]) | further results |
| --- | --- | --- | --- | --- | --- |
| O=C(NCc1ccc(-c2ccncc2)cc1)c1nc[nH]c1C(=O)Nc1ccc(F)cc1 [15g, N^5-(4-fluorophenyl)-N^4-(4-(pyridin-4-yl)benzyl)-1H-imidazole-4,5-dicarboxamide] | > 120 µM | > 120 µM | > 120 µM | > 120 µM | – |
| Cc1ccc(NC(=O)c2nccnc2C(=O)Nc2ccc(C)cc2-c2cccnc2)cc1 [20i, N^2-(4-methyl-2-(pyridin-3-yl)phenyl)-N^3-(p-tolyl) pyrazine-2,3-dicarboxamide] | 10.6 µM | – | – | 18.4 µM | CC50 at 168 h (in vitro; Dengue CC50): 47.5 µM; CC50 at 168 h (in vitro; Yellow fever CC50): 75.5 µM |
| O=C(NCc1ccccc1-c1ccsc1)c1nc[nH]c1C(=O)Nc1ccc(F)cc1 [15d, N^5-(4-fluorophenyl)-N^4-(2-(thiophen-3-yl)benzyl)-1H-imidazole-4,5-dicarbox amide] | 8.88 µM | – | – | 2.61 µM | CC50 at 168 h (in vitro; Dengue CC50): 17.3 µM; CC50 at 168 h (in vitro; Yellow fever CC50): 34.5 µM |
| Cc1cc(-c2ccccc2NC(=O)c2nc[nH]c2C(=O)Nc2ccc(F)cc2)[nH]n1 [15b, N^5-(4-fluorophenyl)-N^4-(2-(3-methyl-1H-pyrazol-5-yl)phenyl)-1H-imidazole-4,5-dicarboxamide] | 6.03 µM | – | > 121 µM | 1.85 µM | CC50 at 168 h (in vitro; Dengue CC50): 21.7 µM |
| O=C(Nc1ccc(F)cc1)c1nccnc1C(=O)Nc1ccccc1-c1ccncc1 [20d, N^2-(4-fluorophenyl)-N^3-(2-(pyridin-4-yl)phenyl) pyrazine-2,3-dicarboxamide] | 11.7 µM | > 117 µM | > 123 µM | 8.22 µM | – |
| Cc1ccc(NC(=O)c2nccnc2C(=O)NCc2ccc(-c3cccnc3)cc2)cc1 [20j, N^2-(4-(pyridin-3-yl)benzyl)-N^3-(p-tolyl) pyrazine-2,3-dicarboxamide] | 6.75 µM | > 116 µM | > 124 µM | 73.1 µM | – |
| Cc1ccc(NC(=O)c2nc[nH]c2C(=O)Nc2ccc(F)cc2)c(-c2cc(C)n[nH]2)c1 [15a, N^5-(4-fluorophenyl)-N^4-(4-methyl-2-(3-methyl-1H-pyrazol-5-yl)phenyl)-1H-imidazole-4,5-dicarboxamide] | 2.5 µM | > 120 µM | > 120 µM | 3.37 µM | EC50 (yellow fever virus (YFV)): 3.47 µM |
| Cc1ccc(NC(=O)c2nccnc2C(=O)NCc2ccc(-c3ccncc3)cc2)cc1 [20h, N^2-(4-(pyridin-4-yl)benzyl)-N^3-(p-tolyl) pyrazine-2,3-dicarboxamide] | 16.6 µM | – | > 110 µM | 36.8 µM | CC50 at 168 h (in vitro; Dengue CC50): 74.7 µM |
| Cc1ccc(NC(=O)c2nccnc2C(=O)Nc2ccc(C)cc2-c2ccncc2)cc1 [20n, N^2-(4-methyl-2-(pyridin-4-yl)phenyl)-N^3-(p-tolyl) pyrazine-2,3-dicarboxamide] | 11.9 µM | > 119 µM | > 118 µM | 30.9 µM | – |
| Cc1ccc(NC(=O)c2nccnc2C(=O)Nc2ccc(F)cc2)c(-c2ccncc2)c1 [20g, N^2-(4-fluorophenyl)-N^3-(4-methyl-2-(pyridin-4-yl)phenyl)pyrazine-2,3-dicarbox amide] | > 117 µM | > 117 µM | > 125 µM | 48.4 µM | – |
| Cc1ccc(NC(=O)c2nc[nH]c2C(=O)Nc2ccccc2)c(-c2ccsc2)c1 [15j, N^4-(4-methyl-2-(thiophen-3-yl)phenyl)-N^5-phenyl-1H-imidazole-4,5-dicarboxamide] | > 124 µM | > 124 µM | > 120 µM | 9.2 µM | – |
| Cc1ccc(NC(=O)c2nc[nH]c2C(=O)Nc2ccc(F)cc2)c(-c2ccco2)c1 [15i, N^5-(4-fluorophenyl)-N^4-(2-(furan-2-yl)-4-methylphenyl)-1H-imidazole-4,5-dicarboxamide] | > 124 µM | > 124 µM | – | – | – |
| O=C(NCc1ccccc1-c1ccncc1)c1nc[nH]c1C(=O)Nc1ccc(F)cc1 [15c, N^5-(4-fluorophenyl)-N^4-(2-(pyridin-4-yl)benzyl)-1H-imidazole-4,5-dicarboxami-de] | 1.92 µM | – | > 120 µM | 3.9 µM | EC50 (dengue virus (DENV)): 1.93 µM; CC50 at 168 h (in vitro; Dengue CC50): 50.1 µM |
| Cc1ccc(NC(=O)c2nc[nH]c2C(=O)NCc2ccccc2)c(-c2ccco2)c1 [15m, N^5-benzyl-N^4-(2-(furan-2-yl)-4-methylphenyl)-1H-imidazole-4,5-dicarboxamide] | > 125 µM | > 125 µM | – | – | DENV inhibitory activity in words (dengue virus (DENV)): annihilated the inhibitory properties |
| Cc1ccc(NC(=O)c2nccnc2C(=O)Nc2ccc(F)cc2)c(-c2cccnc2)c1 [20b, N^2-(4-fluorophenyl)-N^3-(4-methyl-2-(pyridin-3-yl)phenyl) pyrazine-2,3-dicarboxamide] | 0.93 µM | > 118 µM | > 118 µM | 13.1 µM | DENV inhibitory activity in words (dengue virus (DENV)): strongly inhibiting |
| O=C(NCc1ccc(-c2ccsc2)cc1)c1nc[nH]c1C(=O)Nc1ccc(F)cc1 [15f, N^5-(4-fluorophenyl)-N^4-(4-(thiophen-3-yl)benzyl)-1H-imidazole-4,5-dicarboxamide] | 33.7 µM | – | > 119 µM | 28.8 µM | CC50 at 168 h (in vitro; Dengue CC50): 20.2 µM |
| Cc1ccc(NC(=O)c2nc[nH]c2C(=O)NCCc2ccc(F)cc2)c(-c2ccco2)c1 [15n, N^5-(4-fluorophenethyl)-N^4-(2-(furan-2-yl)-4-methylphenyl)-1H-imidazole-4,5-dicarboxamide] | 3.77 µM | > 116 µM | – | – | – |
| O=C(Nc1ccc(F)cc1)c1nccnc1C(=O)Nc1ccccc1-c1cccnc1 [20e, N^2-(4-fluorophenyl)-N^3-(2-(pyridin-3-yl)phenyl) pyrazine-2,3-dicarboxamide] | 23.2 µM | > 120 µM | > 119 µM | 47.5 µM | – |
| Cc1ccc(NC(=O)c2[nH]cnc2C(=O)Nc2ccc(C)cc2-c2ccsc2)cc1 [15k, N^4-(4-methyl-2-(thiophen-3-yl)phenyl)-N^5-(p-tolyl)-1H-imidazole-4,5-dicarboxamide] | 2.02 µM | > 50 µM | > 120 µM | > 120 µM | – |
| Cc1ccc(NC(=O)c2nc[nH]c2C(=O)Nc2ccc(F)cc2)c(-c2ccsc2)c1 [15h, N^5-(4-fluorophenyl)-N^4-(4-methyl-2-(thiophen-3-yl)phenyl)-1H-imidazole-4,5-dicarboxamide] | 48.8 µM | > 117 µM | > 119 µM | > 119 µM | – |
| Cc1cnc(NC(=O)c2[nH]cnc2C(=O)Nc2ccccc2)c(-c2ccc(C)s2)c1 [15o, N^5-(5-methyl-3-(5-methylthiophen-2-yl)pyridin-2-yl)-N^4-phenyl-1H-imidazole-4,5-dicarboxamide] | > 120 µM | – | > 119 µM | > 120 µM | DENV inhibitory activity in words (dengue virus (DENV)): inactive; CC50 at 168 h (in vitro; Dengue CC50): 26.4 µM |
| Cc1ccc(NC(=O)c2nccnc2C(=O)Nc2ccccc2-c2ccncc2)cc1 [20k, N^2-(2-(pyridin-4-yl)phenyl)-N^3-(p-tolyl) pyrazine-2,3-dicarboxamide] | 4.71 µM | > 122 µM | > 125 µM | 12.5 µM | – |
| O=C(NCc1ccc(-c2cccnc2)cc1)c1nc[nH]c1C(=O)Nc1ccc(F)cc1 [15e, N^5-(4-fluorophenyl)-N^4-(4-(pyridin-3-yl)benzyl)-1H-imidazole-4,5-dicarboxamide] | 42.1 µM | > 120 µM | > 118 µM | 11.8 µM | – |
| O=C(NCc1ccc(-c2ccncc2)cc1)c1nccnc1C(=O)Nc1ccc(F)cc1 [20a, N^2-(4-fluorophenyl)-N^3-(4-(pyridin-4-yl)benzyl) pyrazine-2,3-dicarboxamide] | 0.93 µM | > 118 µM | > 120 µM | 7.49 µM | fold increase in anti-DENV potency (dengue virus (DENV)): 2 fold |
| Cc1ccc(NC(=O)c2[nH]cnc2C(=O)Nc2ccc(C)cc2-c2ccco2)cc1 [15l, N^4-(2-(furan-2-yl)-4-methylphenyl)-N^5-(p-tolyl)-1H-imidazole-4,5-dicarboxamide] | 3.47 µM | > 125 µM | – | – | – |
| O=C(NCc1ccccc1-c1ccncc1)c1nccnc1C(=O)Nc1ccc(F)cc1 [20f, N^2-(4-fluorophenyl)-N^3-(2-(pyridin-4-yl)benzyl) pyrazine-2,3-dicarboxamide] | 40.7 µM | > 118 µM | > 127 µM | 21.3 µM | fold decrease in activity against DENV (dengue virus (DENV)): 20 fold; fold decrease in activity against YFV (yellow fever virus (YFV)): 6 fold |
| O=C(NCc1ccc(-c2cccnc2)cc1)c1nccnc1C(=O)Nc1ccc(F)cc1 [20c, N^2-(4-fluorophenyl)-N^3-(4-(pyridin-3-yl)benzyl) pyrazine-2,3-dicarboxamide] | 2.99 µM | > 115 µM | > 116 µM | 8.9 µM | – |
| Cc1ccc(NC(=O)c2nccnc2C(=O)Nc2ccccc2-c2cccnc2)cc1 [20l, N^2-(2-(pyridin-3-yl)phenyl)-N^3-(p-tolyl) pyrazine-2,3-dicarboxamide] | 14.6 µM | > 128 µM | > 122 µM | > 122 µM | – |
